{
  "source": "patent US12624128B2",
  "about": "“Low molecular weight chondroitin sulfate, composition, preparation method and use thereof” (NANJING HANXIN PHARMACEUTICAL TECHNOLOGY CO., LTD., priority 2019, dated 2026)",
  "key": {"osteoporosis rats [1]": {"test_system": "osteoporosis rats", "experiment": "Bone phosphorus level, osteoporosis rats (Example 24)", "format": "in vivo", "conditions": "male rats; CSO low-dose (3.8 mg/kg)+calcium acetate 158 mg/kg; compared with model group, P<0.05, P<0.01", "procedure": "(§1) Ninety female SD rats weighing 200-220 g were used. The rats adapted to the environment for 3 d. Fasting but freely taking water for 24 h before surgery. Rats were injected intraperitoneally with 3% chloral hydrate and anesthetised. Ten […] were used as the sham-operated group with longitudinal incisions on the skin and muscle from both sides of the lumbar and dorsal spine without removing the ovaries. For the other animals, longitudinal incisions were made from both sides of the lumbar and dorsal spine to cut the skin and muscle, and both ovaries were removed, and the wounds were sutured. All animals were intramuscular injected with penicillin for 3 consecutive days after operation. (Male rats were operated with the same method to remove testicles).\n(§2) On the second day after surgery, ovariectomized rats were randomly divided into 8 groups with […] in each group:\n(§3) On the second day after surgery, rats were given by intragastric administration with an administration volume of 0.2 mL/100 g. The sham-operated group and model group were given in the same volume of normal saline. […]\n(§4) The rats were sacrificed, and the femur on both sides was separated. The right femur was taken and measured for the following indexes: bone weight coefficient (g/100 g body weight), bone density, ash level, bone calcium or bone phosphorus, bone hydroxyproline, HE pathology. […]"}, "osteoporosis rats [2]": {"test_system": "osteoporosis rats", "experiment": "Femoral ash level, osteoporosis rats (Example 24)", "format": "in vivo", "conditions": "male rats; CSO high, medium and low dose (15, 7.5, 3.8 mg/kg)+calcium acetate 158 mg/kg; compared with model group, P<0.01, P<0.05", "procedure": "as §1, §2, §3, §4"}},
  "data": [
    {"smiles": "CC(=O)[O-].CC(=O)[O-].[Ca+2]", "note": "[Ca, Calcium acetate]", "values": [
      {"measurement": "bone phosphorus level", "setting": "osteoporosis rats [1]", "result": "significantly increased"},
      {"measurement": "level of femoral ashes", "setting": "osteoporosis rats [2]", "result": "significantly increased"}
    ]}
  ]
}
